Reference: ChEMBL document CHEMBL4428109, “Structure-activity relationship studies of non-carboxylic acid peroxisome proliferator-activated receptor α/δ (PPARα/δ) dual agonists” (Bioorg Med Chem, 2016)
Activity calls are given as the source filed them.

Columns and labels:
[1] = biological target: T1, Retinoic acid receptor RXR-beta (Homo sapiens) (UniProt P28702); experiment: Agonist activity at RXRbeta (unknown origin) at < 20 uM
T1 sequence (whole entry): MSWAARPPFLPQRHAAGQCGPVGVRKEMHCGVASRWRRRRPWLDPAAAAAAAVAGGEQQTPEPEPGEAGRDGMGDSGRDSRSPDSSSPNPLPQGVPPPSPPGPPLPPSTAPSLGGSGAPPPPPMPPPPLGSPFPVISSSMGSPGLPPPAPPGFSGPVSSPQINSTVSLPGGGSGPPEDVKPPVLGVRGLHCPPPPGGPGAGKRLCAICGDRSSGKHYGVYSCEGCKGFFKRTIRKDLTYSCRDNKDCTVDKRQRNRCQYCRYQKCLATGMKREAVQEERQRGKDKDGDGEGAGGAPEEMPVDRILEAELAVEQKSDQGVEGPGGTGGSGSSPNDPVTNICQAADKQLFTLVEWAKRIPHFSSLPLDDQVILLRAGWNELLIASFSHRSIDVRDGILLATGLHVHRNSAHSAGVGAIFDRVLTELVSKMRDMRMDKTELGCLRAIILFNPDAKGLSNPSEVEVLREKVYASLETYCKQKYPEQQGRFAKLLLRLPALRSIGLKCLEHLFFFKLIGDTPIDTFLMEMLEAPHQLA

[2] = biological target: T2, Oxysterols receptor LXR-alpha (Homo sapiens) (UniProt Q13133); experiment: Agonist activity at LXRalpha (unknown origin) at < 20 uM
T2 sequence (whole entry): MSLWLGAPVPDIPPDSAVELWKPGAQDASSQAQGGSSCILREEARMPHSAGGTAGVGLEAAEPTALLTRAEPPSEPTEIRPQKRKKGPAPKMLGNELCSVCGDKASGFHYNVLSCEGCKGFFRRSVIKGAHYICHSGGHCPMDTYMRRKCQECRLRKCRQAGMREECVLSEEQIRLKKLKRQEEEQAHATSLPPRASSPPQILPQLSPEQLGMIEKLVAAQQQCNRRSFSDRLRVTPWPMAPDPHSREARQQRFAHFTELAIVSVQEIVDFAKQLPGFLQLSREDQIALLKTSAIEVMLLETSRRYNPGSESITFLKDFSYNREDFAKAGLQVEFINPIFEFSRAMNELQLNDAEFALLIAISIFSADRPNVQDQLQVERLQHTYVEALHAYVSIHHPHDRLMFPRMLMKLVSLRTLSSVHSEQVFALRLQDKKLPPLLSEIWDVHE

[3] = biological target: T3, Retinoic acid receptor RXR-alpha (Homo sapiens) (UniProt P19793); experiment: Agonist activity at RXRalpha (unknown origin) at < 20 uM
T3 sequence (whole entry): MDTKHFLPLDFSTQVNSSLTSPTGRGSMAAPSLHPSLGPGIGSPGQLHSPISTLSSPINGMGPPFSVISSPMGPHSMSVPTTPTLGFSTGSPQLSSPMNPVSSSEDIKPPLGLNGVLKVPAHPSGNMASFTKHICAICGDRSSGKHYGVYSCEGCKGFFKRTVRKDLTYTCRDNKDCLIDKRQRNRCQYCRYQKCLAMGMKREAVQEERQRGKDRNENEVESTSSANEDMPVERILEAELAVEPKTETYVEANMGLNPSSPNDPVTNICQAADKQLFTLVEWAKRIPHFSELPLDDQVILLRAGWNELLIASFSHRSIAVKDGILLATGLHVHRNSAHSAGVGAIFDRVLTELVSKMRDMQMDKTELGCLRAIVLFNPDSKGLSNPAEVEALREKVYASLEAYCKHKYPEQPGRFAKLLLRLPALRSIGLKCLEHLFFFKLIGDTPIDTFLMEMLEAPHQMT

[4] = biological target: T4, Oxysterols receptor LXR-beta (Homo sapiens) (UniProt P55055); experiment: Agonist activity at LXRbeta (unknown origin) at < 20 uM
T4 sequence (whole entry): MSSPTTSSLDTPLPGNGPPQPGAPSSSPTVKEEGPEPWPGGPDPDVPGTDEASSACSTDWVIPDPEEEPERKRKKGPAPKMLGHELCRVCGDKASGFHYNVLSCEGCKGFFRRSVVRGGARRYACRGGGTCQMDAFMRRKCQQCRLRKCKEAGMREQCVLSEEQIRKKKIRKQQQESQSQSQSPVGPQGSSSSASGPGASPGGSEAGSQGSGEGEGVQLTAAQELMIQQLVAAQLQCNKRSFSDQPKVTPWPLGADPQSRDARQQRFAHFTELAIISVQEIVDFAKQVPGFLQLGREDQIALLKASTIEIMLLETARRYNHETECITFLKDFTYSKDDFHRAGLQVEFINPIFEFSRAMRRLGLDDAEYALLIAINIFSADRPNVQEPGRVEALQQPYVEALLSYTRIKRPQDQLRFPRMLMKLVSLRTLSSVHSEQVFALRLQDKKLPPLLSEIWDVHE

[5] = biological target: T5, Retinoic acid receptor RXR-gamma (Homo sapiens) (UniProt P48443); experiment: Agonist activity at RXRgamma (unknown origin) at < 20 uM
T5 sequence (whole entry): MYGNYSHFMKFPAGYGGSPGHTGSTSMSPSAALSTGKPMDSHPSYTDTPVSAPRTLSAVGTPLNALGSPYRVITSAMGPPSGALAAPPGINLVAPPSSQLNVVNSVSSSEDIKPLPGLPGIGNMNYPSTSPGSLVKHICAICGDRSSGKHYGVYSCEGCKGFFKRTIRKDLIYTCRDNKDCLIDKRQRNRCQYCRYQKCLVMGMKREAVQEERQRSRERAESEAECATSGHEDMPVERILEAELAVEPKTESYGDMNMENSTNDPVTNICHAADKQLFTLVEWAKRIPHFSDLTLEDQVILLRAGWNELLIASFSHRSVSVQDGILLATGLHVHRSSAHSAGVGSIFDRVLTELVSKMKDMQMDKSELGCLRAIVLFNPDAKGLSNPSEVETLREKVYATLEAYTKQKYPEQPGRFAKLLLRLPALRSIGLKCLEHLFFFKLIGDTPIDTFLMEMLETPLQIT

[6] = biological target: T6, Bile acid receptor (Homo sapiens) (UniProt Q96RI1); experiment: Agonist activity at FXR (unknown origin) at < 20 uM
T6 sequence (whole entry): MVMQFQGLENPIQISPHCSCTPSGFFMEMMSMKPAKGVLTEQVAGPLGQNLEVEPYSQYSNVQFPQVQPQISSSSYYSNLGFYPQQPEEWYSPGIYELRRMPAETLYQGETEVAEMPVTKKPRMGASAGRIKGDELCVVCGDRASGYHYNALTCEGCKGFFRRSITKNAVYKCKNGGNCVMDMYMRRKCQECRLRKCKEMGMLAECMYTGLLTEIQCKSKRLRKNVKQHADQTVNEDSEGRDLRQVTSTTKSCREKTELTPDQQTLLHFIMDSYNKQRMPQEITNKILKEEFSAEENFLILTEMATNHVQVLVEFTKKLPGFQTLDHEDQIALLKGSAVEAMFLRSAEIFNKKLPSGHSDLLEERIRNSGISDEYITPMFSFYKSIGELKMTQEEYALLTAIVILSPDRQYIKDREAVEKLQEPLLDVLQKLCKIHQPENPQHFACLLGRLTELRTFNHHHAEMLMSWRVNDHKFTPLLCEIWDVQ

Measured: Activity

CC(=O)NC(C)c1nc(-c2ccc(Oc3ccc(O)cc3)cc2)no1 (stereo unspecified)
inactive: all assays above
